Here are results for six compounds from ChEMBL document CHEMBL1138383, “2-Arylidenedihydroindole-3-ones: design, synthesis, and biological activity on bladder carcinoma cell lines” (2007).

SMILES strings stand for the structures.

The test system of experiment [1] is RT-112. Briefly: Effect on viability of RT112 cells overexpressing wild-type FGFR3 at 10 uM after 72 hrs. The class given is functional, Homo sapiens.
For experiment [2], the system named is J82. Briefly: Effect on viability of J82 cells with FGFR3 K650E mutation at 10 uM after 72 hrs. The class given is functional, Homo sapiens.
The nature of experiment [3]: Effect on viability of DAG1 cells with FGFR3 S249C mutation at 10 uM after 72 hrs. Type of experiment: functional, Homo sapiens.
For experiment [4], the system named is RT-112. Briefly: Decrease in p-Stat5 antigen expression level in RT112 cells overexpressing wild-type FGFR3 at 10 uM after 6 hrs by flow cytometry relative to control. The class given is functional, Homo sapiens. A general note: A flow cytometer gives signals particle by particle.
Experiment [5] in a line: Decrease in p-Pyk2 antigen expression level in DAG1 cells with FGFR3 S249C mutation at 10 uM after 6 hrs by flow cytometry relative to control. The following applies: Homo sapiens. The class given is functional, cell-based.
Experiment [6] can be described thus: Decrease in p-Stat5 antigen expression level in DAG1 cells with FGFR3 S249C mutation at 10 uM after 6 hrs by flow cytometry relative to control. Type of experiment: functional, cell-based. Conditions: Homo sapiens.
Experiment [7] can be described thus: Induction of apoptosis in DAG1 cells with FGFR3 S249C mutation at 10 uM after 48 hrs by flow cytometry. Type of experiment: functional, Homo sapiens.
Experiment [8] concerns RT-112. Kind of experiment: Decrease in p-Pyk2 antigen expression level in RT112 cells overexpressing wild-type FGFR3 at 10 uM after 6 hrs by flow cytometry relative to control. The class given is functional, Homo sapiens.
Experiment [9] deals with J82. Kind of experiment: Induction of apoptosis in J82 cells with FGFR3 K650E mutation at 10 uM after 48 hrs by flow cytometry. The class given is functional, Homo sapiens.
For experiment [10], the system named is RT-112. Kind of experiment: Induction of apoptosis in RT112 cells overexpressing wild-type FGFR3 at 10 uM after 48 hrs by flow cytometry. The class given is functional, Homo sapiens.

Consider `COc1cc2c(c(OC)c1)C(=O)/C(=C/c1c(F)cccc1Cl)N2`, for which the Activity in [1] amounted to 93%; in [2] it was 95%; in experiment [3], 91%.

`CCc1ccc(/C=C2\Nc3cc(OC)cc(OC)c3C2=O)cc1`: the Activity in experiment [1] amounted to 97%; in [2], 99%; in experiment [3], 98%.

Take `COc1cc2c(c(OC)c1)C(=O)/C(=C/c1[nH]cnc1C)N2`: the Activity in experiment [1] was 92%; in experiment [2], 90%; in experiment [3], 89%.

As to `COc1cc2c(c(OC)c1)C(=O)/C(=C/c1ccc(Cl)cc1)N2`, the Activity was 93% in experiment [1], 94% in experiment [2] and 99% in [3].

In the case of `COc1cc2c(c(OC)c1)C(=O)/C(=C/c1ccccc1F)N2`, the Activity was found to be 2.5 in experiment [4]; 2 in experiment [5]; 9.5 in [6]; 86% in experiment [7]; 48% in [1]; 1.3 in experiment [8]. Besides, the Activity in experiment [9] is 3%; in [2] it was 97%; in experiment [3], 58%; in [10], 20%.

In the case of `COc1cc2c(c(OC)c1)C(=O)/C(=C/c1ncc[nH]1)N2`, the Activity stood at 92% in experiment [1], 89% in [2] and 90% in [3].
